# Experimental data taken from patent US4018765A, “Process for the preparation of certain hydroperoxy derivatives” (Hoffmann-La Roche Inc., priority 1975, dated 1977).
# Like-named read-outs stand apart in the source and are kept apart here.
# Legend:
# Format in all cases: in vivo
# [1] = tested on: hypothermia induced by reserpine in mice; test: reversal of hypothermia induced by reserpine in mice; conditions: Mus musculus, po, reserpine 10 mg/kg s.c., read-out: dose that reversed the hypothermia and hypometabolic effects induced by reserpine
# Protocol: (§1) As has been indicated hereinabove the novel end products of this invention, i.e., the compounds of formula I and their pharmaceutically acceptable acid addition salts and the compounds of formula II-d and their pharmaceutically acceptable acid addition salts, are useful as psychostimulants. When administered, for example, orally, or animals such as mice they produce a direct-acting stimulant effect of long duration in single doses in amounts ranging from 0.03 mg/kg to 50 mg/kg. […] Exp. Path. and Pharm., Vol. 140, page 237). The compounds of this invention have psychostimulant effects qualitatively similar in many respect to those of imipramine and amphetamine which are wellknown for their therapeutic uses and properties.
# [2] = tested on: effects of β-(3,4-dihydroxyphenyl)-α-alanine (DOPA) in mice; test: DOPA potentiation test in mice; conditions: Mus musculus, ip
# Protocol: as §1
# [3] = tested on: ptosis induced by tetrabenzene in mice; test: prevention of ptosis induced by tetrabenzene (tetrabenazene) in mice; conditions: Mus musculus, po, read-out: dose that prevented the ptosis induced by tetrabenzene
# Protocol: as §1
# [4] = tested on: mice; test: writhing test in mice (analgesic); conditions: p.o.
# Protocol: (§2) In addition to their use as psychostimulants, the compounds of formulas I and II-d are also useful as analgesic agents. […] For example, 2-(2-benzoylphenyl)-2-imadazoline in dogs at 4 mg/kg i.v. produced an increase in blood pressure of 10 mm. Hg after 2 minutes followed by gradual increase to 25 mm. Hg.
# [5] = tested on: unanesthetized cat; test: unanesthetized cat test for muscle relaxants; conditions: p.o.
# Protocol: as §2
# [6] = tested on: dogs; test: blood pressure in dogs; conditions: 4 mg/kg i.v.
# Protocol: as §2
# [7] = tested on: animals; test: analgesic properties (pharmacological tests in animals); conditions: based on the pharmacological tests in animals
# Protocol: as §2
# [8] = tested on: mice; test: psychostimulant activity (pharmacological tests in animals such as mice); conditions: similarly tested
# Protocol: as §1
# [9] = mice, i.p., read-out: dose that potentiated the effects of DOPA
# [10] = comparison drugs, read-out: dose showing psychostimulant activity in the DOPA potentiation test
smiles,measurement,setting,value
"OC1(c2ccccc2)c2ccccc2C2=NCCCCN21 (centres unmarked) [Example 21, 2,3,4,5-tetrahydro-7-hydroxy-7-phenyl-7H-diazepino-[2,1-a]isoindole]",minimal effective dose,[1],25 mg/kg
same,minimal effective dose,[2]; [9],7.5 mg/kg
"O=C(c1ccccc1)c1ccccc1C1=NCCN1 [Example 10, 2-(2-benzoylphenyl)-2-imidazoline]",minimal effective dose,[3],0.06 mg/kg
same,minimal effective dose,[2]; [9],6.25 mg/kg
same,dose with marked activity in the writhing test,[4],30.8 mg/kg
same,dose active in the unanesthetized cat test for muscle relaxants,[5],2.5 mg/kg
same,increase in blood pressure after 2 minutes,[6]; after 2 minutes,10 mm. Hg
same,"increase in blood pressure, following gradual increase",[6]; gradual increase after the first 2 minutes,25 mm. Hg
same,analgesic properties relative to phenylbutazone,[7],can be likened to the analgesic properties of phenylbutazone
"COc1ccc(C2(O)c3ccccc3C3=NCCN32)cc1 (centres unmarked) [2,3-dihydro-5-hydroxy-5-(4-methoxyphenyl)-5H-imidazo[2,1-a]-isoindole]",psychostimulant test result relative to 2-(2-benzoylphenyl)-2-imidazoline,[8],qualitatively similar to 2-(2-benzoylphenyl)-2-imidazoline
"CC(N)Cc1ccccc1 (centres unmarked) [amphetamine, reference compound]",minimal effective dose,[2]; [10],1 mg/kg
"OC1(c2ccc(Cl)cc2)c2ccccc2C2=NCCN21 (centres unmarked) [5-(4-chlorophenyl)-2,3-dihydro-5-hydroxy-5H-imidazo[2,1-a]-isoindole]",psychostimulant test result relative to 2-(2-benzoylphenyl)-2-imidazoline,[8],qualitatively similar to 2-(2-benzoylphenyl)-2-imidazoline
"COC1(c2ccccc2)c2ccccc2C2=NCCN21 (centres unmarked) [Example 19, 2,3-dihydro-5-methoxy-5-phenyl-5H-imidazo[2,1-a]isoindole]",psychostimulant test result relative to 2-(2-benzoylphenyl)-2-imidazoline,[8],qualitatively similar to 2-(2-benzoylphenyl)-2-imidazoline
"CN(C)CCCN1c2ccccc2CCc2ccccc21 [imipramine, reference compound]",minimal effective dose,[2]; [10],10 mg/kg
